Marks after values point to notes of the source that are not given here.
Columns and labels:
Assay type in all cases: in vivo
Kunming mice [1] = assay: Influence on autonomic activity of normal mice (ZIL-2 mice autonomic activity meter, counts within 10 min); details: intragastric, x ± s, n = 10; for Times of activities in 1 h after drug administration/10 min: 1 h after administration; for Times of activities in 2 h after drug administration/10 min: 2 h after administration; for Times of activities in 24 h after drug administration/10 min: 24 h after administration
Source text: (§1) 1.1 Animals for experiments: Kunming mice, weighting 18.9˜22.2 g for females, and 20.2˜23.0 g for males, licensed under SCXK-(Ji) 2007-0003, and provided by The experimental animal centre, Jilin University.
(§2) 1.2 Chemicals for experiments: The flavone derivatives provided in Examples 1-41 and the flavanone derivatives provided in Examples 42-71 are all formulated with 0.5% sodium carboxymethyl cellulose as solutions with required concentrations.
(§3) 1.3 Grouping of animals: 6420 animals are employed in the entire experiments and 2140 of the animals are randomly divided into 214 groups by gender, and the […] include: control group, low dosage group for each experimental drugs (25 mg/kg), medium dosage group for each experimental drugs (50 mg/kg), and high dosage group for each experimental drugs (100 mg/kg). Each group has 10 animals and either female or male constitutes half of the group. The groups are used in behavior observation and voluntary action observation. The other 4280 animals are randomly divided into 214 groups by gender respectively (the grouping way is the same with that described above). Each group has 20 animals and either female or male constitutes half of the group. In each group, 10 animals are used in hypnosis experimentations with pentobarbital sodium doses below the threshold, and the other 10 animals are used hypnosis experimentations with pentobarbital sodium doses at the threshold.
1.4 Experimental instrument and agents: ZIL-2 mice autonomic activity meter, production of Institute of Materia Medica of Chinese Academy of Medical Sciences; pentobarbital sodium, Lot: 100808, 25 g/bottle, Beijing Chemical Reagent Company equipment imported from Germany.
1.5.2 Influence on Autonomic Activity of Normal Mice
After observing the general behavior, in 1 h, 2 h and 24 h after drug administration, respectively, ZIL-2 mice autonomic activity meter is put respectively. Number of autonomic activities of each group of mice is measured within 10 min. Results among groups are compared.
(§4) Number of autonomic activities is detected by leneve Test for homogeneity of variance. If the homogeneity of variance is good (P>0.05), statistical analysis is performed with ANOVA. If ANOVA have statistical significance (P≦0.05), Dunnett's test for multiple comparisons analysis is performed. Number of animals of sleeping mice is applied of ANOVA. Incidence rate of animal asleep is applied of χ2 test. Sleep latency and sleep duration are recorded in min, averaged by group, represented by standard deviation, and undergo statistical analysis using ANOVA.

Kunming mice [2] = assay: Influence on hypnosis effect with pentobarbital sodium doses below the threshold (25 mg/kg i.p.); details: pentobarbital sodium 25 mg/kg i.p. 60 min later, sleep observed in 30 min, n = 10
Source text: as §1, §2, §3
1.5.3 Influence on Hypnosis Effect with Mice Pentobarbital Sodium Doses Below the Threshold
(§5) The drug is intragastric administered in mice for single time, 2 animals of each group are given drug per round with the dosing interval of 40 min (±5 min). According to the administration round, in 60 min (±5 min) of each round after the drug administration, the animals were intraperitoneally injected 0.3% sodium pentobarbital 25 mg/kg, respectively. Sleep condition of the animals were observed within 30 min (under sleep determination standard of loss of righting reflex more than 1 min). After animals undergo loss of righting reflex, number of the animals is recorded, to calculate sleep percentage.
as §4

Kunming mice [3] = assay: Influence on hypnosis effect with pentobarbital sodium doses at the threshold (50 mg/kg i.p.); details: pentobarbital sodium 50 mg/kg i.p. 60 min later, x ± s, n = 10
Source text: as §1, §2, §3
1.5.4 Influence on Hypnosis Effect with Mice Pentobarbital Sodium Doses at the Threshold
as §5, with “50” for “25”, “Time to fall asleep (sleep latency) and sleep duration” for “Sleep condition”, “recorded” for “observed”, “under” for “30 min (under”, “min.” for “min). After animals undergo loss of righting reflex, number of the animals is recorded, to calculate sleep percentage.”
as §4

[4] = test drug 25 mg/kg intragastric single dose
[5] = test drug 50 mg/kg intragastric single dose
[6] = test drug 100 mg/kg intragastric single dose
[7] = 25 mg/kg intragastric single dose
[8] = 50 mg/kg intragastric single dose
[9] = 100 mg/kg intragastric single dose

Compound	Times of activities in 1 h after drug administration/10 min (Kunming mice [1]; 25 mg/kg)	Times of activities in 2 h after drug administration/10 min (Kunming mice [1]; 25 mg/kg)	Times of activities in 24 h after drug administration/10 min (Kunming mice [1]; 25 mg/kg)	Times of activities in 1 h after drug administration/10 min (Kunming mice [1]; 50 mg/kg)	Times of activities in 2 h after drug administration/10 min (Kunming mice [1]; 50 mg/kg)	Times of activities in 24 h after drug administration/10 min (Kunming mice [1]; 50 mg/kg)	Times of activities in 1 h after drug administration/10 min (Kunming mice [1]; 100 mg/kg)	Times of activities in 2 h after drug administration/10 min (Kunming mice [1]; 100 mg/kg)	Times of activities in 24 h after drug administration/10 min (Kunming mice [1]; 100 mg/kg)	Number of sleeping animals (Kunming mice [2]; [4])	rate of sleeping (%) (Kunming mice [2]; [4])	Number of sleeping animals (Kunming mice [2]; [5])	rate of sleeping (%) (Kunming mice [2]; [5])	Number of sleeping animals (Kunming mice [2]; [6])	rate of sleeping (%) (Kunming mice [2]; [6])	duration of sleep (Kunming mice [3]; [7])	time to sleep (Kunming mice [3]; [7])	duration of sleep (Kunming mice [3]; [8])	time to sleep (Kunming mice [3]; [8])	duration of sleep (Kunming mice [3]; [9])	further results
COc1ccc(-c2oc3c(OC)c(OC)c(OC)c(OC)c3c(=O)c2OC)cc1OC [Example 41, 3,5,6,7,8,3′,4′-heptamethoxyl-flavone]	285.2 ± 44.1 /10 min	266.0 ± 40.6 /10 min	307.2 ± 69.7 /10 min	260.4 ± 37.9 /10 min	245.5 ± 28.1 /10 min	306.2 ± 81.3 /10 min	198.6 ± 58.8 /10 min	171.5 ± 56.7 /10 min	291.5 ± 70.0 /10 min	4	40* %	6	60** %	8	80*** %	22.16 ± 16.23 min	5.33 ± 2.25 min	28.34 ± 17.13 min	5.12 ± 2.09 min	65.44 ± 37.54 min	time to sleep (Kunming mice [3]; [9]): 3.16 ± 1.23 min
CCc1cc(C2CC(=O)c3cc([N+](=O)[O-])c(SC#N)c(C4CCNC4)c3O2)ccc1C(=O)c1ccccc1 (stereo not drawn) [Example 54]	307.3 ± 65.2 /10 min	287.3 ± 72.9 /10 min	331.2 ± 67.4 /10 min	252.8 ± 62.1 /10 min	240.2 ± 62.6 /10 min	320.7 ± 75.1 /10 min	205.3 ± 42.8 /10 min	198.3 ± 48.5 /10 min	315.3 ± 79.2 /10 min	3	30%	5	50** %	7	70** %	35.81 ± 17.2 min	4.84 ± 1.64 min	43.53 ± 14.97 min	4.33 ± 1.87 min	47.53 ± 15.92 min	time to sleep (Kunming mice [3]; [9]): 3.63 ± 1.54 min
COc1ccc(-c2cc(=O)c3c(O)cc(OC)c(OC)c3o2)cc1O [Example 2, 5,3′-dihydroxyl-7,8,4′-trimethoxyl-flavone]	320.1 ± 54.7 /10 min	293.5 ± 40.8 /10 min	302.7 ± 77.5 /10 min	295.3 ± 41.8 /10 min	254.2 ± 41.1 /10 min	306.2 ± 90.6 /10 min	281.3 ± 47.6 /10 min	223.5 ± 45.7 /10 min	311.4 ± 80.3 /10 min	5	50** %	6	60** %	7	70** %	35.56 ± 15.89 min	6.61 ± 2.22 min	39.23 ± 23.45 min	4.95 ± 2.23 min	53.55 ± 22.04 min	time to sleep (Kunming mice [3]; [9]): 3.92 ± 1.12 min

— patent publication US9669003B2, “Use of flavone and flavanone derivatives in preparation of sedative and hypnotic drugs” (priority 2012, dated 2017)
